In patent US9670242B2, “Tetracyclic anthraquinone derivatives” (Tianjin Hemay Bio-Tech Co., Ltd, priority 2012, dated 2017):
Values belong to the molecule of their own block, whether it stands above or below them.

Columns and labels:
DU-145 cells = test: DU-145 cell growth inhibition test (MTT assay); assay type: cell-based; settings: 72 h
Experimental: DU-145 Cell Growth Inhibition Test (MTT Assay)
(§1) II. Reagents and Consumable Materials
Culture medium: 90% EMEM+10% FBS (fetal calf serum); Pancreatin (0.25% (w/v) solution was formulated with PBS, 0.53 mM of EDTA was added in the formulation); PBS; 96-well culture plate.
(§2) 1. A plate (10 cm) of cells in logarithmic growth phase that were normally cultured was collected;
(§3) 2. The culture solution was sucked out. The plate was washed with 5 mL of PBS once or twice;
(§4) 3. PBS was sucked out. 1.5 mL of 0.25% pancreatin was added to the plate to infiltrate the cells for 1 min;
(§5) 4. The culture plate was placed in an incubator. Digestion was carried out for about 1 min at 37° C.;
(§6) 5. 3 mL of complete culture solution was added to the culture plate to stop the digestion. The cells were carefully scoured with micropipette (1 mL) to give a uniform cell suspension. The suspension was implanted into a 96-well cell culture disc by 4000 cells/100 μL per well. The culture plate was incubated overnight under 5% CO2 at 37° C. In day 2, 100 μL of culture solution comprising a compound was added in each well. The plate was further incubated for 72 h under 5% CO2 at 37° C.;
(§7) 6. The culture solution was sucked out;
(§8) 7. 100 μL of serum-free culture solution containing 0.5 mg/mL MTT was added in each well. The plate was incubated for 3 h;
(§9) 8. The culture solution was carefully sucked out;
(§10) 9. 100 μL of DMSO was added in each well and vibrated to dissolve;
(§11) 10. OD values were determined at 490 nM.
(§12) IV. Results and Treatments
(§13) 1. Calculation of Relative Inhibition Ratio The inhibition ratio of a compound on cell growth=(PC−n)/(PC−NC)×100%
(§14) PC: OD values of cells after normal growth in control wells without a compound;
(§15) n: OD values of cells after growth in test wells with a compound;
(§16) NC: Background OD values of blank wells without a compound and cells.

MCF-7 cells = test: MCF-7 cell growth inhibition test (SRB assay); assay type: cell-based, human; settings: 73 h
Experimental: MCF-7 Cell Growth Inhibition Test (SRB Assay)
as §1
Culture medium: 90% EMEM+10% FBS; Pancreatin (0.25% (w/v) solution was formulated with PBS, 0.53 mM of EDTA was added in the formulation); PBS; 96-well culture plate.
as §2, §3
(§17) 3. 1.5 mL of 0.25% pancreatin was added to the plate to infiltrate the cells;
(§18) 4. The pancreatin was sucked out. The culture plate was placed in an incubator. Digestion was carried out for about 3 min at 37° C.;
as §6, with “5. 4” for “5. 3”, “uniform single” for “uniform”, “culture plate” for “culture disc”, “by 10000” for “by 4000”, “for 73” for “for 72”
(§19) 6. The culture solution was sucked out. 100 uL of TCA fixed cells which were diluted to 10% were added to each well. The plate was kept in a refrigerator for 1 h at 4° C.
(§20) 7. TCA stationary liquid was sucked out. Each well was washed with 150 μL of ddH2O five times;
(§21) 8. After the stationary liquid was cleansed, the plate was dried in the air at the room temperature;
(§22) 9. 60 μL of SRB staining solution was added in each well. The well was stained for 15 min at the room temperature;
(§23) 10. The SRB staining solution was sucked out. Each well was washed with 150 μL of 1% glacial acetic acid five times;
(§24) 11. After the SRB staining solution was cleansed, the plate was dried in the air at the room temperature;
(§25) 12. 100 μL of 10 mM Tris was added in each well. The plate was vibrated to dissolve out SRB;
(§26) 13. OD values were determined at 570 nM.
as §12
1. Calculation of Relative Inhibition Ratio The inhibition ratio of a compound on cell growth=(PC−n)/(PC−NC)×100% […]

A375 cells = test: A375 cell growth inhibition test (MTT assay); assay type: cell-based, human; settings: 72 h
Experimental: A375 Cell Growth Inhibition Test (MTT Assay)
as §1
Culture medium: 90% DMEM+10% FBS (fetal calf serum); Pancreatin (0.25% (w/v) solution was formulated with PBS, 0.53 mM of EDTA was added in the formulation); PBS; 96-well culture plate.
as §2, §3, §4
(§27) 4. The culture plate was placed in an incubator. Digestion was carried out for about 5 min at 37° C.;
as §6, with “ml)” for “mL)”, “3000” for “4000”
as §7, §8, §9, §10, §11, §12, §13, §14, §15, §16

B16 cells = test: B16 cell growth inhibition test (MTT assay); assay type: cell-based, mouse; settings: 72 h
Experimental: B16 Cell Growth Inhibition Test (MTT Assay)
as §1
(§28) Culture medium: 90% RPMI1640+10% FBS (fetal calf serum); Pancreatin (0.25% (w/v) solution was formulated with PBS, 0.53 mM of EDTA was added in the formulation); PBS; 96-well culture plate.
as §2, §3, §4, §5
as §6, with “2500” for “4000”
as §7
7. 100 μl of serum-free culture solution containing 0.5 mg/mL MTT was added in each well. The plate was incubated for 3 h;
as §9, §10, §11, §12, §13, §14, §15, §16

NCI-446 cells = test: NCI-446 cell growth inhibition test (MTT assay); assay type: cell-based, human; settings: 72 h
Experimental: NCI-446 Cell Growth Inhibition Test (MTT Assay)
II. Reagents and Consumable Materials Culture medium: 90% RPMI1640+10% FBS (fetal calf serum); Pancreatin (0.25% (w/v) solution was formulated with PBS, 0.53 mM of EDTA was added in the formulation); PBS; 96-well culture plate.
as §2
2. The culture solution was sucked out. The plate was washed with 5 ml of PBS once or twice;
as §4
(§29) 4. The culture plate was placed in an incubator. Digestion was carried out for about 3 min at 37° C.;
as §6, §7, §8, §9
9. […]
(§30) 10. OD values were determined at 490 nM. […]

A431 cells = test: A431 cell growth inhibition test (MTT assay); assay type: cell-based, human; settings: 72 h
Experimental: A431 Cell Growth Inhibition Test (MTT Assay)
as §1
Culture medium: 45% DMEM+45% F12+10% FBS (fetal calf serum); Pancreatin (0.25% (w/v) solution was formulated with PBS, 0.53 mM of EDTA was added in the formulation); PBS; 96-well culture plate.
as §2, §3, §4, §27
as §6, with “2500” for “4000”
as §7, §8, §9, §10, §11, §12, §13, §14, §15, §16

NCI-H460 cells = test: NCI-H460 cell growth inhibition test (MTT assay); assay type: cell-based, human; settings: NCI-460 cells (NCI-H460 in method), 72 h
Experimental: NCI-H460 Cell Growth Inhibition Test (MTT Assay)
as §1, §28, §2, §3, §4, §29
as §6, with “2000” for “4000”
as §7, §8, §9
9. […]
as §30

Hep3B cells = test: Hep3B cell growth inhibition test (SRB assay); assay type: cell-based; settings: 72 h
Experimental: Hep3B Cell Growth Inhibition Test (SRB Assay)
as §1
Culture medium: 90% RPMI-1640+10% FBS; Pancreatin (0.25% (w/v) solution was formulated with PBS, 0.53 mM of EDTA was added in the formulation); PBS; 96-well culture plate.
as §2, §3, §17, §18
as §6, with “5. 4” for “5. 3”, “uniform single” for “uniform”, “culture plate” for “culture disc”, “by 5000” for “by 4000”
as §19, §20, §21, §22, §23, §24, §25, §26, §12
1. Calculation of Relative Inhibition Ratio The inhibition ratio of the compound on cell growth=(PC−n)/(PC−NC)×100% […]

786-O cells = test: 786-O cell growth inhibition test (MTT assay); assay type: cell-based, human; settings: 72 h
Experimental: 786-O Cell Growth Inhibition Test (MTT Assay)
as §1, §28, §2, §3, §4, §5
as §6, with “2000” for “4000”
as §7, §8, §9, §10, §11, §12, §13, §14, §15, §16

[1] = Storage stability detected by HPLC; assay type: physicochemical; settings: sealed and stored for 9 months under refrigeration conditions
[2] = Solubility of the compound in water; assay type: physicochemical
SK-Br-3 cells = test: SK-Br-3 cell growth inhibition test (SRB assay); assay type: cell-based, human; settings: 72 h
Experimental: SK-Br-3 Cell Growth Inhibition Test (SRB Assay)
as §1
Culture medium: 85% DMEM+15% FBS; pancreatin (0.25% (w/v) solution was formulated with PBS, 0.53 mM of EDTA was added in the formulation); PBS; 96-well culture plate.
as §2, §3, §17
4. The pancreatin was sucked out. The culture plate was placed in an incubator. Digestion was carried out for about 2 min at 37° C.;
as §6, with “5. 4” for “5. 3”, “uniform single” for “uniform”, “culture plate” for “culture disc”, “by 10000” for “by 4000”
as §19
7. TCA stationary liquid was sucked out. […]
13. OD values were determined at […]. […]

Compound: COc1cccc2c1C(=O)c1c(O)c3c(c(O)c1C2=O)CC(O)(C(=O)COC(=O)CCC(=O)NCCN1CCOCC1)CC3O[C@H]1C[C@H](n2cccc2)[C@H](O)[C@H](C)O1 (stereo partly drawn) [Example 89, 10-((3′-(pyrrol-1-yl)-2′,3′,6′-trideoxy-alphal-l-lyxo-hexylpyranyl)oxy)-7,8,9,10-tetrahydro-6,8,11-trihydroxy-13-oxo-14-(4-((2-(morpholin-1-yl)ethyl)amino)-4-oxo-butyrato)-1-methoxy-5,12-naphthalenedione acetate]
IC50 (DU-145 cells): 56 nM | IC50 (MCF-7 cells): 333 nM | IC50 (A375 cells): 48 nM | IC50 (B16 cells): 3 nM | IC50 (NCI-446 cells): 140 nM | IC50 (A431 cells): 46 nM | IC50 (NCI-H460 cells): 2.5 nM

IC50 (DU-145 cells): 30 nM | IC50 (Hep3B cells): 29 nM | IC50 (786-O cells): 90 nM
Compound: COc1cccc2c1C(=O)c1c(O)c3c(c(O)c1C2=O)CC(O)(C(=O)COC(=O)CCC(=O)NCCOCCOCCOCCOCCOCCOCCOCCO)CC3OC1CC(n2cccc2)C(O)C(C)O1 (stereo not drawn) [Example 90]

IC50 (DU-145 cells): 61 nM | IC50 (Hep3B cells): 28 nM
Compound: COc1cccc2c1C(=O)c1c(O)c3c(c(O)c1C2=O)CC(O)(C(=O)COC(=O)CCC(=O)NCCOCCOCCOCCOCCOCCOCCOCCOCCOCCOCCOCCO)CC3OC1CC(n2cccc2)C(O)C(C)O1 (stereo not drawn) [Example 92]

Compound: COc1cccc2c1C(=O)c1c(O)c3c(c(O)c1C2=O)CC(O)(C(=O)COC(=O)CCC(=O)NCCN1CCOCC1)CC3O[C@H]1C[C@H](n2cccc2)[C@H](O)[C@H](C)O1.O=P(O)(O)O (stereo partly drawn) [Example 96, 10-((3′-(pyrrol-1-yl)-2′,3′,6′-trideoxy-alphal-l-lyxo-hexylpyranyl)oxy)-7,8,9,10-tetrahydro-6,8,11-trihydroxy-13-oxo-14-(4-((2-(morpholin-1-yl)ethyl)amino)-4-oxo-butyrato)-1-methoxy-5,12-naphthalenedione phosphate]
stability on storage (degraded product by HPLC) [1]: No obvious degraded product was observed | solubility of the compound in water [2]: more than 26 mg/ml

IC50 (SK-Br-3 cells): 15 nM
Compound: COCCOCCOCCOCCOCCOCCOCCOCCOCCNC(=O)CCC(=O)OCC(=O)C1(O)Cc2c(O)c3c(c(O)c2C(OC2CC(n4cccc4)C(O)C(C)O2)C1)C(=O)c1c(OC)cccc1C3=O (stereo not drawn) [Example 98]
